One data set relates to Daoy. In words: Cytotoxicity against human DaOY cells. It is filed as cell-based.
For the next data set, the system named is HeLa. In words: Cytotoxicity against human HeLa cells. Format: cell-based.
The test system of a further data set is MCF7. In words: Cytotoxicity against human MCF7 cells. Format: cell-based.
The next data set has as its system HEp-2. In words: Cytotoxicity against human Hep2 cells. Format: cell-based.
Data set [1] deals with RAW264.7. In words: Antiinflammatory activity in LPS-stimulated mouse RAW264.7 cells assessed as reduction in iNOS protein expression at 10 uM by immunoblot analysis. Format: functional. The arrangement: scale not given: the % may be the effect or the level left.
The test system of data set [2] is RAW264.7. In words: Antiinflammatory activity in LPS-stimulated mouse RAW264.7 cells assessed as reduction in COX2 protein expression at 10 uM by immunoblot analysis. Format: functional. The arrangement: scale not given: the % may be the effect or the level left. On the technique in general: Immunoblotting shows a protein as a band on a membrane.

As to `C=C1C[C@H]2O[C@H]([C@@H]3[C@@H](C(C)C)[C@H](OC(C)=O)[C@H](OC(C)=O)[C@@]4(CO4)[C@@H]32)[C@](C)(OC(C)=O)CC[C@@H]1O` (relative stereo), the Activity entry is listed as “Non-toxic” in the data set on Daoy; “Non-toxic” in the data set with HeLa; “Non-toxic” with MCF7; “Non-toxic” in the data set on HEp-2; 42.1% in the data set on RAW264.7 [1].

As to `C=C1C[C@H]2O[C@H]([C@H]3[C@@H]2[C@]2(CO2)[C@@H](OC(C)=O)C[C@@H]3C(C)C)[C@](C)(OC(C)=O)CC[C@@H]1O` (relative stereo), the Activity entry with Daoy was “Non-toxic”; in the data set with HeLa, “Non-toxic”; with MCF7, “Non-toxic”; in the data set with HEp-2, “Non-toxic”; with RAW264.7 [1] it was 25.1%.

Turning to `CC(=O)O[C@H]1[C@H](C(C)C)[C@@H]2[C@@H]([C@H]3C[C@](C)(O)[C@@H](OC(C)=O)CC[C@@](C)(OC(C)=O)[C@@H]2O3)[C@]2(CO2)[C@H]1OC(C)=O` (relative stereo), the Activity entry is “Non-toxic” in the data set with Daoy; “Non-toxic” in the data set on HeLa; “Non-toxic” with MCF7; “Non-toxic” in the data set on HEp-2; 25.7% in the data set on RAW264.7 [1].

For `CCCCCCCCCCCCCC(=O)O[C@H]1CC[C@@](C)(OC(C)=O)[C@@H]2O[C@H](C[C@]1(C)O)[C@@H]1[C@H]2[C@@H](C(C)C)[C@H](OC(C)=O)[C@H](OC(C)=O)[C@@]12CO2` (relative stereo), the Activity entry is reported as “Non-toxic” in the data set on Daoy; “Non-toxic” in the data set with HeLa; “Non-toxic” with MCF7; 8.5% in the data set on RAW264.7 [2]; “Non-toxic” in the data set on HEp-2; 6% in the data set on RAW264.7 [1].

As to `CCCCCCCCCCCCCCCC(=O)O[C@H]1CC[C@@](C)(OC(C)=O)[C@@H]2O[C@H](C[C@]1(C)O)[C@@H]1[C@H]2[C@@H](C(C)C)[C@H](OC(C)=O)[C@H](OC(C)=O)[C@@]12CO2` (relative stereo), the Activity entry in the data set on Daoy is given as “Non-toxic”; in the data set on HeLa it was “Non-toxic”; with MCF7, “Non-toxic”; in the data set with RAW264.7 [2] it was 4.4%; with HEp-2, “Non-toxic”; in the data set with RAW264.7 [1], 5.2%.

Consider `CC(=O)O[C@H]1[C@H](C(C)C)[C@@H]2[C@@H]([C@H]3C[C@@H](C)C(=O)CC[C@@](C)(OC(C)=O)[C@@H]2O3)[C@](O)(CCl)[C@H]1OC(C)=O` [KLYMOLLIN A], for which the Activity result in the data set with Daoy, in the data set on HeLa, in the data set with MCF7 and in the data set on HEp-2 was “Non-toxic” throughout.

For `CC(=O)O[C@H]1[C@H](C(C)C)[C@@H]2[C@@H]([C@H]3C[C@H](C)C(=O)CC[C@@](C)(OC(C)=O)[C@@H]2O3)[C@](O)(CCl)[C@H]1OC(C)=O` [KLYMOLLIN B], the Activity entry in the data set on Daoy, in the data set on HeLa, with MCF7 and with HEp-2 was “Non-toxic” throughout.

Take `CC(=O)O[C@H]1[C@H](C(C)C)[C@@H]2[C@@H]([C@H]3C[C@](C)(O)[C@@H](OC=O)CC[C@@](C)(OC(C)=O)[C@@H]2O3)[C@]2(CO2)[C@H]1OC(C)=O` [KLYMOLLIN H]: the Activity entry in the data set on Daoy is listed as “Non-toxic”; with HeLa, “Non-toxic”; in the data set on MCF7, “Non-toxic”; in the data set on HEp-2 it was “Non-toxic”; with RAW264.7 [1] it was 32.6%.

For the origin of these results see ChEMBL document CHEMBL1921708, “Klymollins A-H, bioactive eunicellin-based diterpenoids from the formosan soft coral Klyxum molle” (J Nat Prod, 2011).
